Legend:
Helicobacter pylori [1] = tested on: Helicobacter pylori
Description: Inhibition of Helicobacter pylori alpha carbonic anhydrase by stopped-flow CO2 hydrase assay

Helicobacter pylori [2] = tested on: Helicobacter pylori; remark: listed apart in the source
Description: Inhibition of Helicobacter pylori beta carbonic anhydrase by stopped-flow CO2 hydrase assay

[3] = biological target: Carbonic anhydrase 1 (Homo sapiens) (UniProt P00915)
Description: Inhibition of human carbonic anhydrase 1 by stopped-flow CO2 hydrase assay

[4] = biological target: Carbonic anhydrase 2 (Homo sapiens) (UniProt P00918)
Description: Inhibition of human carbonic anhydrase 2 by stopped-flow CO2 hydrase assay

Chain of Carbonic anhydrase 1 (Homo sapiens) (P00915 2-261 limits assumed): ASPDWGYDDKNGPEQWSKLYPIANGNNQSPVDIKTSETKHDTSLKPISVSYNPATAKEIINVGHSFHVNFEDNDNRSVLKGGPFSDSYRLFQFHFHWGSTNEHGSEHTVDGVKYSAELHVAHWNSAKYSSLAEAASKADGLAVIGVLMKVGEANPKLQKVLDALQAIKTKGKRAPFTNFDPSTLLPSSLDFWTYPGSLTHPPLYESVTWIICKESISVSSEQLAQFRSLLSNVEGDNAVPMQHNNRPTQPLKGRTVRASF

Compound | Kinact (Helicobacter pylori [1]) [nM] | Kinact (Helicobacter pylori [2]) [nM] | Kinact [3] [µM] | Kinact [4] [nM]
CC(=O)/N=c1/sc(S(N)(=O)=O)nn1C | 225 | 176 |  | 
Nc1nccc(Nc2ccc(S(N)(=O)=O)cc2)n1 | 84 | 38 |  | 
Nc1ccccc1S(N)(=O)=O | 426 | 16400 |  | 
Nc1ccc(S(N)(=O)=O)cc1Cl | 378 | 1460 |  | 
CC(C)(C)c1ccc(C(=O)Nc2cccc(S(N)(=O)=O)c2)cc1 | 316 | 241 | 10.8 | 
CC(C)(C)c1ccc(S(=O)(=O)Nc2cccc(S(N)(=O)=O)c2)cc1 | 318 | 213 | 9.62 | 
CC(C)(C)c1ccc(S(=O)(=O)NCCc2ccc(S(N)(=O)=O)cc2)cc1 | 27 | 45 | 12 | 94
Cn1nc(S(N)(=O)=O)sc1=N | 549 | 768 |  | 
Cc1ccc(S(N)(=O)=O)cc1 | 430 | 2470 | 78.5 | 
CCN[C@H]1CN(CCCOC)S(=O)(=O)c2sc(S(N)(=O)=O)cc21 | 210 | 128 |  | 
Nc1ccc(S(N)(=O)=O)cc1Br | 452 | 1240 |  | 
CC(C)(C)c1ccc(C(=O)NCc2ccc(S(N)(=O)=O)cc2)cc1 | 539 | 101 | 12.3 | 241
NS(=O)(=O)c1nnc(-c2ccccc2Cl)s1 |  | 37 | 0.69 | 
CC(C)(C)c1ccc(C(=O)Nc2ccccc2S(N)(=O)=O)cc1 | 539 | 23500 | 12.3 | 
Nc1ccc(S(=O)(=O)Nc2nnc(S(N)(=O)=O)s2)cc1 | 268 | 64 |  | 
NS(=O)(=O)c1ccc(C(=O)O)cc1 | 1050 | 450 |  | 
Nc1ccc(S(N)(=O)=O)cc1F | 1230 | 1360 |  | 
CC(C)(C)c1ccc(C(=O)NCCc2ccc(S(N)(=O)=O)cc2)cc1 | 62 | 44 | 13.3 | 127
Nc1ccc(S(=O)(=O)NCCc2ccc(S(N)(=O)=O)cc2)cc1 | 114 | 71 |  | 
CC(C)(C)c1ccc(C(=O)Nc2nnc(S(N)(=O)=O)s2)cc1 | 13 | 28 | 0.541 | 
CC(C)(C)c1ccc(S(=O)(=O)Nc2nnc(S(N)(=O)=O)s2)cc1 | 12 | 24 | 0.338 | 
CC(C)(C)c1ccc(S(=O)(=O)Nc2ccccc2S(N)(=O)=O)cc1 | 640 | 24800 | 14.7 | 295
CC(C)(C)c1ccc(S(=O)(=O)Nc2ccc(S(N)(=O)=O)cc2)cc1 | 60 | 150 | 13 | 
NS(=O)(=O)c1ccc(CO)cc1 | 876 | 236 |  | 
Nc1ccc(S(=O)(=O)NCc2ccc(S(N)(=O)=O)cc2)cc1 | 131 | 87 |  | 
NCc1ccc(S(N)(=O)=O)cc1 | 873 | 2360 |  | 
NNc1ccc(S(N)(=O)=O)cc1 |  | 8650 | 28 | 
CC(C)(C)c1ccc(S(=O)(=O)NCc2ccc(S(N)(=O)=O)cc2)cc1 | 31 | 96 | 12.2 | 104
CC(C)(C)c1ccc(C(=O)Nc2ccc(S(N)(=O)=O)cc2)cc1 | 79 | 158 | 14.2 | 
Nc1ccc(S(N)(=O)=O)cc1I | 510 | 1150 | 6 | 

— ChEMBL document CHEMBL1148873, “Carbonic anhydrase inhibitors: the beta-carbonic anhydrase from Helicobacter pylori is a new target for sulfonamide and sulfamate inhibitors” (Bioorg Med Chem Lett, 2007)
